Test [1] has as its target T1, human TPO-R (transfected Ba/F3 cells) (Homo sapiens, UniProt P40238).
T1 construct: Murine IL-3 dependent Ba/F3 cells were transfected with full length human TPO-R; expressed in transfected cells; host or cells: murine Ba/F3 cells
T1 sequence (P40238 26-635): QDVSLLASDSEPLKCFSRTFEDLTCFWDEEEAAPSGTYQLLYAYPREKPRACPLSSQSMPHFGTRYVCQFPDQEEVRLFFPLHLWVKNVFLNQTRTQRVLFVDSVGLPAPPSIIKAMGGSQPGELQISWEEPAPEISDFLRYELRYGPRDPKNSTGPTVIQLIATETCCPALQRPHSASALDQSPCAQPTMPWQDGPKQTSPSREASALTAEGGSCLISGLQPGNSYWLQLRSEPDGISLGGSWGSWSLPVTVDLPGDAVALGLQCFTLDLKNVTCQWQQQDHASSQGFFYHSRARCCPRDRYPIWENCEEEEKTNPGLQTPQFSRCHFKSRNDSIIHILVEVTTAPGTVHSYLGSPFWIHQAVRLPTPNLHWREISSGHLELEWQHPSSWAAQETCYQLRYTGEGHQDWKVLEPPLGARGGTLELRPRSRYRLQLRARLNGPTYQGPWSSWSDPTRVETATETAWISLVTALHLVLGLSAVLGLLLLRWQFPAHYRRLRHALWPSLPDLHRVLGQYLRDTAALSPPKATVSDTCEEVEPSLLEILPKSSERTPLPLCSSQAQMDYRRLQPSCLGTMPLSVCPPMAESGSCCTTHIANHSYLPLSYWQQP
Kind of test: Thrombopoietin dependent cell proliferation assay (MTT), TPO-R transfected Ba/F3 cells. Format: cell-based.

Another test deals with T2, TPO-R (Homo sapiens, UniProt P40238).
T2 construct: made in house
T2 sequence (P40238 26-491 limits assumed): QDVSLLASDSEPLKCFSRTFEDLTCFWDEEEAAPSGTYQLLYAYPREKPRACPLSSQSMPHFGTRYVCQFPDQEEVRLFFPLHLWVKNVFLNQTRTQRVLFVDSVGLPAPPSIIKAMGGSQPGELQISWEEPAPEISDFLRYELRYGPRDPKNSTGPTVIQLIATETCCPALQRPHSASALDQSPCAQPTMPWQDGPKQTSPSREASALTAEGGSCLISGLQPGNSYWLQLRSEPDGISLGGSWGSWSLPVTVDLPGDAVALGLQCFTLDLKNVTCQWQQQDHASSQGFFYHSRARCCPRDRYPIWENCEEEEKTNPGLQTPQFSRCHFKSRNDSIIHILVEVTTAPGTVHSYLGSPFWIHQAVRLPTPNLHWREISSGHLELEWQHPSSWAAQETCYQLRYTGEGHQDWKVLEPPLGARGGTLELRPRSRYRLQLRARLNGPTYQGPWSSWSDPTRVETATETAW
The test can be described thus: Competition binding assay (equilibrium binding ELISA, MBP-TPO156 tracer) on immobilized TPO-R. The procedure:
A variety of methods can be used to evaluate IC50 values. For example, an equilibrium binding ELISA assay, using either MBP-TPO or lacI-peptide tracer, was used to determine whether the peptides inhibit the binding of TPO to the extracellular domain of the TPO receptor. Typically, the IC50 value were determined using the free peptide. The IC50 value can be determined using the free peptide, which optionally can be C-terminally amidated, or can be prepared as an ester or other carboxy amide.
Binding affinities of chemically synthesized peptides for TPO-R were measured in a competition binding assay. The wells of a microtiter plate were coated with 1 mg streptavidin, blocked with PBS/1% BSA, followed by 50 ng of biotinylated anti-receptor immobilizing antibody (Ab179). The wells were then treated with a 1:10 dilution of soluble TPO-R harvest. Various concentrations of peptide or peptide mimetic were mixed with a constant amount of a truncated form of TPO consisting of residues 1-156 fused to the C-terminus of maltose binding protein (MBP-TPO156). The peptide MBP-TPO156 mixtures were added to the TPO-R coated wells, incubated for 2 hours at 4° C. and then washed with PBS. The amount of MBP-TPO156 that was bound at equilibrium was measured by adding a rabbit anti-sera directed against MBP, followed by alkaline phosphatase conjugated goat anti-rabbit IgG. The amount of alkaline phosphatase in each well was then determined using standard methods.
The assay is conducted over a range of peptide concentrations and the results are graphed such that the y axis represents the amount of bound MBP-TPO156 and the x axis represents the concentration of peptide or peptide mimetic.
For orientation: An ELISA detects its analyte on a solid surface through an enzyme-linked reagent.

[2] abbreviates: Table 5, substitutions in cyclized compound, read-out: EC50 (nM) Cell Prolif.

Read-outs that look alike come from different tables or passages of the source. Where a SMILES comes first, the peptide text is derived from it.

As for `CC[C@H](C)[C@H](NC(C)=O)C(=O)N[C@@H](CCC(=O)O)C(=O)NCC(=O)N1CCC[C@H]1C(=O)N[C@H](C(=O)N[C@@H](CC(C)C)C(=O)N[C@@H](CCCNC(=N)N)C(=O)N[C@@H](CCC(N)=O)C(=O)N[C@@H](Cc1c[nH]c2ccccc12)C(=O)N[C@@H](CC(C)C)C(=O)N[C@@H](C)C(=O)N[C@@H](C)C(=O)N[C@@H](CCCNC(=N)N)C(=O)N[C@@H](C)C(=O)NCCCC[C@H](NC(=O)CCNC(=O)[C@H](C)NC(=O)[C@H](CCCNC(=N)N)NC(=O)[C@H](C)NC(=O)[C@H](C)NC(=O)[C@H](CC(C)C)NC(=O)[C@H](Cc1c[nH]c2ccccc12)NC(=O)[C@H](CCC(N)=O)NC(=O)[C@H](CCCNC(=N)N)NC(=O)[C@H](CC(C)C)NC(=O)[C@@H](NC(=O)[C@@H]1CCCN1C(=O)CNC(=O)[C@H](CCC(=O)O)NC(=O)[C@@H](NC(C)=O)[C@@H](C)CC)[C@@H](C)O)C(N)=O)[C@@H](C)O`, in test [1] (Table 10, truncations of the dimer, read-out: EC50 (nM) Cell Prolif.), the EC50 (in general, the concentration that produces a half-maximal response) was less than 500 nM.

`CC[C@H](C)[C@@H]1NC(=O)[C@@H](N)CSSC[C@@H](C(N)=O)NC(=O)[C@H](C)NC(=O)[C@H](CCCNC(=N)N)NC(=O)[C@H](C)NC(=O)[C@H](C)NC(=O)[C@H](CC(C)C)NC(=O)[C@H](Cc2c[nH]c3ccccc23)NC(=O)[C@H](CCC(N)=O)NC(=O)[C@H](CCCNC(=N)N)NC(=O)[C@H](CC(C)C)NC(=O)[C@H]([C@@H](C)O)NC(=O)[C@@H]2CCCN2C(=O)CNC(=O)[C@H](CCC(=O)O)NC1=O` (HELM PEPTIDE1{C.I.E.G.P.T.L.R.Q.W.L.A.A.R.A.C.[am]}$PEPTIDE1,PEPTIDE1,1:R3-16:R3$$$V2.0): the IC50 (usually the concentration needed to halve the response being measured) at TPO-R (Table 9, read-out: IC50) was no more than 500 nM.

As to `CC(C)C[C@H](NC(=O)[C@@H](NC(=O)[C@@H]1CCCN1C(=O)CNC(=O)[C@@H](NC(=O)[C@@H](N)Cc1c[nH]cn1)C(C)C)[C@@H](C)O)C(=O)N[C@@H](CCCNC(=N)N)C(=O)N[C@@H](CO)C(=O)NCC(=O)N[C@@H](CSSC[C@H](NC(=O)CNC(=O)[C@H](CO)NC(=O)[C@H](CCCNC(=N)N)NC(=O)[C@H](CC(C)C)NC(=O)[C@@H](NC(=O)[C@@H]1CCCN1C(=O)CNC(=O)[C@@H](NC(=O)[C@@H](N)Cc1c[nH]cn1)C(C)C)[C@@H](C)O)C(N)=O)C(N)=O` (HELM PEPTIDE1{H.V.G.P.T.L.R.S.G.C.[am]}|PEPTIDE2{H.V.G.P.T.L.R.S.G.C.[am]}$PEPTIDE1,PEPTIDE2,10:R3-10:R3$$$V2.0), at TPO-R (Table 7, dimer compounds, read-out: IC50), the IC50 is no more than 200000 nM. For the same compound, in test [1] (Table 7, dimer compounds, read-out: EC50 (nM) Prolif.), the EC50 is less than 200000 nM.

In the case of `CC[C@H](C)[C@@H]1NC(=O)[C@H](Cc2c[nH]c3ccccc23)NC(=O)[C@H](CCC(=O)O)NC(=O)[C@H](CCCNC(=N)N)NC(=O)[C@H](CC(C)C)NC(=O)[C@H]([C@@H](C)O)NC(=O)[C@@H]2CCCN2C(=O)CNC(=O)[C@H](CC(=O)O)NC(=O)[C@H](C)NC(=O)[C@@H](N)CSSC[C@@H](C(N)=O)NC(=O)[C@H](Cc2cccnc2)NC(=O)[C@H](CO)NC1=O` [F-(Pyridylala)] (HELM PEPTIDE1{C.A.D.G.P.T.L.R.E.W.I.S.[O=C([C@H](Cc1cccnc1)N[*:1])[*:2]].C.[am]}$PEPTIDE1,PEPTIDE1,1:R3-14:R3$$$V2.0; N-terminus and C-terminus assumed), at TPO-R (Table 5, read-out: IC50), the IC50 is no more than 500 nM. Besides, the EC50 in test [1] (setting [2]) was less than 500 nM.

On to `CC[C@H](C)[C@@H]1NC(=O)[C@H](Cc2c[nH]c3ccccc23)NC(=O)[C@H](CCC(=O)O)NC(=O)[C@H](CCCNC(=N)N)NC(=O)[C@H](CC(C)C)NC(=O)[C@H]([C@@H](C)O)NC(=O)[C@@H]2CCCN2C(=O)CNC(=O)[C@H](CC(=O)O)NC(=O)[C@H](C)NC(=O)[C@@H](NC(=O)CNC(=O)CN)CSSC[C@@H](C(=O)NCC(=O)NCC(=O)O)NC(=O)[C@H](Cc2ccccc2)NC(=O)[C@H](CO)NC1=O` [G G C A D G P T L R E W I S F C G G] (HELM PEPTIDE1{G.G.C.A.D.G.P.T.L.R.E.W.I.S.F.C.G.G}$PEPTIDE1,PEPTIDE1,3:R3-16:R3$$$V2.0; N-terminus and C-terminus assumed; bridges inferred), for which the IC50 at TPO-R (Table 3, read-out: Affinity (IC50)) was no more than 500 nM.

Turning to `CC(C)C[C@@H]1NC(=O)[C@H](Cc2c[nH]c3ccccc23)NC(=O)[C@H](CCC(=O)O)NC(=O)[C@H](CCCNC(=N)N)NC(=O)[C@H](CC(C)C)NC(=O)[C@H]([C@@H](C)O)NC(=O)[C@@H](NC(=O)CNC(=O)CN)CSSC[C@@H](C(=O)NCC(=O)NCC(=O)O)NC(=O)[C@H](Cc2ccccc2)NC(=O)CNC(=O)CNC(=O)[C@H](Cc2c[nH]cn2)NC1=O` [G G C T L R E W L H G G F C G G] (HELM PEPTIDE1{G.G.C.T.L.R.E.W.L.H.G.G.F.C.G.G}$PEPTIDE1,PEPTIDE1,3:R3-14:R3$$$V2.0; N-terminus and C-terminus assumed; bridges inferred), at TPO-R (read-out: IC50 value), the IC50 was no more than 500 nM.

Turning to `CC[C@H](C)[C@@H]1NC(=O)[C@H](Cc2c[nH]c3ccccc23)NC(=O)[C@H](CCC(=O)O)NC(=O)[C@H](CCCNC(=N)N)NC(=O)[C@H](CC(C)C)NC(=O)[C@H]([C@@H](C)O)NC(=O)[C@@H]2CCCN2C(=O)CNC(=O)[C@H](CC(=O)O)NC(=O)[C@H](C)NC(=O)CSC[C@@H](C(N)=O)NC(=O)CCCCNC1=O` [S,F-Ava(thioether)] (HELM PEPTIDE1{[O=C(C[*:3])[*:2]].A.D.G.P.T.L.R.E.W.I.[O=C(CCCCN[*:1])[*:2]].C.[am]}$PEPTIDE1,PEPTIDE1,1:R3-13:R3$$$V2.0; N-terminus and C-terminus assumed), the IC50 on TPO-R (Table 5, read-out: IC50) was no more than 500 nM. Also, the EC50 in test [1] (setting [2]) was less than 200000 nM.

As for `CC[C@H](C)[C@@H]1NC(=O)[C@H](Cc2c[nH]c3ccccc23)NC(=O)[C@H](CCC(=O)O)NC(=O)[C@H](CCCNC(=N)N)NC(=O)[C@H](CC(C)C)NC(=O)[C@H]([C@@H](C)O)NC(=O)[C@@H]2CCCN2C(=O)CNC(=O)[C@H](CC(=O)O)NC(=O)[C@H](C)NC(=O)[C@@H](N)CSSC[C@@H](C(N)=O)NC(=O)CCCCNC1=O` [S,F-Ava] (HELM PEPTIDE1{C.A.D.G.P.T.L.R.E.W.I.[O=C(CCCCN[*:1])[*:2]].C.[am]}$PEPTIDE1,PEPTIDE1,1:R3-13:R3$$$V2.0; N-terminus and C-terminus assumed), the IC50 at TPO-R (Table 5, read-out: IC50) was no more than 500 nM. In addition, in test [1] (setting [2]), the EC50 is less than 200000 nM.

Regarding `CC[C@H](C)[C@@H]1NC(=O)[C@H](Cc2c[nH]c3ccccc23)NC(=O)[C@H](CCC(=O)O)NC(=O)[C@H](CCCNC(=N)N)NC(=O)[C@H](CC(C)C)NC(=O)[C@H]([C@@H](C)O)NC(=O)[C@@H]2CCCN2C(=O)CNC(=O)[C@H](CC(=O)O)NC(=O)[C@H](C)NC(=O)[C@@H](N)CSSC[C@@H](C(N)=O)NC(=O)[C@H](Cc2ccccc2)NC(=O)[C@H](C)N(C)C1=O` [S-(N-Me-Ala)] (HELM PEPTIDE1{C.A.D.G.P.T.L.R.E.W.I.[meA].F.C.[am]}$PEPTIDE1,PEPTIDE1,1:R3-14:R3$$$V2.0; N-terminus and C-terminus assumed), on TPO-R (Table 5, read-out: IC50), the IC50 is no more than 200000 nM. In addition, in test [1] (setting [2]), the EC50 is less than 200000 nM.

These data come from US8227422B2, “Peptides and compounds that bind to a receptor” (Glaxosmithkline LLC, priority 1996, dated 2012).
